Test results: article PMC11079024, “Identification of a family of species-selective complex I inhibitors as potential anthelmintics” (Nature Communications, 2024)
Where two headings read alike, the source gives them in different places.

Experiments:
[1] = in vitro; conditions: human
[2] = biological target: C. elegans (N2) complex I (NADH:ubiquinone oxidoreductase) (Caenorhabditis elegans, UniProt P24887+Q93873+Q94360); experiment: biochemical; format: biochemical; conditions: for Log IC50 C. elegans complex I: log10 of IC50 in µM, C. elegans mitochondria
Sequence of C. elegans (N2) complex I (NADH:ubiquinone oxidoreductase) (Q94360 17-199): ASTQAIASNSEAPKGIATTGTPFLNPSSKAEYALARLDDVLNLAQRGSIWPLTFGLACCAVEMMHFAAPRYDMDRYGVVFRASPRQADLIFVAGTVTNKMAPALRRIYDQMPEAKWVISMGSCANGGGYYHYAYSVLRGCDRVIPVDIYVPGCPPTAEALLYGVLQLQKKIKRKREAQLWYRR
Sequence of C. elegans (N2) complex I (NADH:ubiquinone oxidoreductase) (P24887 whole entry): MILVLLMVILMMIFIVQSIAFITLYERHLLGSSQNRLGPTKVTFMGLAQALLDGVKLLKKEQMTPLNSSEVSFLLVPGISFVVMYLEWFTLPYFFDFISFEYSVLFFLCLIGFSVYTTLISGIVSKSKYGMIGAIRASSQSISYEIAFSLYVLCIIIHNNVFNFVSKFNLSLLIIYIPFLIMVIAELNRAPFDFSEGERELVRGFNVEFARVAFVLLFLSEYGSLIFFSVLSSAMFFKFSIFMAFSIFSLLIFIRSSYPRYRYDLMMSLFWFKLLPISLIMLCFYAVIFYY
Sequence of C. elegans (N2) complex I (NADH:ubiquinone oxidoreductase) (Q93873 31-482): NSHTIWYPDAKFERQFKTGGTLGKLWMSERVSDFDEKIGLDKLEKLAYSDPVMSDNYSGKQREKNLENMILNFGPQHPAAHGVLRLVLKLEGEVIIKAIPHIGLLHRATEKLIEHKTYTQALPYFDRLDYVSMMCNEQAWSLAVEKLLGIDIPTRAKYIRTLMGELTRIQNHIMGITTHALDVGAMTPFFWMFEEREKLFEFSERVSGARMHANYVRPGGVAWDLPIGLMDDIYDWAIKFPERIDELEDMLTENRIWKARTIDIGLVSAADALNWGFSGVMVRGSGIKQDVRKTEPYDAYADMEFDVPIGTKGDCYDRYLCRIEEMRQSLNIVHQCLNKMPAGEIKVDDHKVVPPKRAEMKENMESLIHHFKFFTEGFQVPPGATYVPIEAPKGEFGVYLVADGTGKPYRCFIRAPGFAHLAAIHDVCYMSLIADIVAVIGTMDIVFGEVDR
Description: Mitochondria were isolated from the following free-living nematode strains: C. elegans—N2, CB3474, ECA882, ECA917, ECA1075, ECA1080; C. briggsae—AF16; P. pacificus—PS312; and P. hermaphrodita—B178. With the exception of the P. hermaphrodita strain B178, adult worms of each strain were grown in bulk through liquid culture to obtain mitochondria in sufficient quantities. Due to poor growth in liquid media, mixed stage populations of P. hermaphrodita were washed off and collected from NGM plates seeded with OP50. The isolation of mitochondria from all free-living nematode strains followed the protocol previously outlined in Burns et al.[24]. In brief, a 1 L saturated culture of E. coli HB101 was concentrated 20-fold in 50 mL complete S-medium. ~500,000 L1 worms synchronized from an embryo preparation performed the day prior were added to the S-media/HB101 suspension and grown to adulthood over the course of 3.5 days at 20 °C with shaking at 165 rpm. Following growth, worms were collected in 10 ×15 mL conical tubes and washed 7 times in M9 buffer. Worm suspensions were then combined into a single 15 mL conical tube and diluted to a final volume of 15 mL with M9 buffer. 1 mL aliquots of worm suspension were then distributed to 15 × 1.5 mL screw-cap microcentrifuge tubes and were pelleted at 500 g for 1 min. Excess M9 was aspirated without disturbing the worm pellet. 600 μL ice-cold isolate buffer A (250 mM sucrose, 10 mM Tris (pH 7.5), 1 mM EDTA, 1 mM PMSF (freshly prepared)) and 300 μL cold glass beads were then added to each tube. Tubes were incubated on ice for 10 min, and the worms were then lysed by bead beating (6 x 30 s, with 1 min cooling intervals). Tubes containing worm lysate were centrifuged at 1,000 g for 10 min at 4 °C and the supernatant was transferred to 15 new microcentrifuge tubes on ice. The tubes were centrifuged a second time at 1,000 g for 10 min at 4 °C and the supernatant was once again transferred to 15 new microcentrifuge tubes on ice. These tubes were then centrifuged at 16,000 g for 10 min at 4 °C. The resulting mitochondrial pellet was washed twice by re-suspension in 300 μL of ice-cold isolate buffer B (250 mM sucrose, 10 mM Tris (pH 7.5), 1 mM EDTA). Following the final wash, isolation buffer was aspirated from each tube and the pellets were flash-frozen in ethanol/dry ice and stored at −80 °C until needed.
(§1) The enzymatic activities of individual ETC complexes (I-IV) were assessed spectrophotometrically in isolated mitochondria using a Varioskan LUX Multimode plate reader (ThermoFisher Scientific). Mitochondrial pellets previously isolated were thawed on ice and resuspended in ice-cold isolation buffer (250 mM sucrose, 10 mM Tris (pH 7.5), 1 mM EDTA). The BCA assay (Walker, 1994) was used to quantify the protein concentration of mitochondria suspensions; solutions were diluted to a concentration of 0.2 mg/mL for use in all assays. For the complex I assay, mitochondria pellets were freeze-thawed on ice three times to increase enzyme accessibility. […] 20 μL mitochondria suspension was then added/mixed with a pipette to initiate the reaction. Immediately following the addition of mitochondria, absorbance was measured (complex I and II: 600 nm; complex III and IV: 550 nm) in 30 s intervals over 15 min. Enzymatic activity was determined in each reaction by plotting absorbance versus time and calculating the slope of the curve during the initial linear phase of the reaction. […] Percent activity of each complex was calculated by dividing the enzyme-specific activity of each well by the enzyme-specific activity of the corresponding solvent controls.
(§2) Chemical solutions were prepared in complex I assay buffer composed of 25 mM KPi buffer (pH 7.5), 3 mg/mL bovine serum albumin (BSA), 80 μM NADH, 60 μM decylubiquinone, 160 μM DCIP, 2 μM antimycin A and 2 mM KCN.
For preliminary screens of hit compounds, compounds were screened at 100 μM; data are the average of at least three biological replicates.

[3] = test system: ben-1 mutant (ECA882) C. elegans; experiment: microbe, parasite or virus in culture; conditions: Caenorhabditis elegans
Description: Liquid development and viability assays were adapted from a previously established chemical screening protocol (Burns et al.)[24]. In brief, a saturated culture of E. coli HB101 was concentrated 2-fold in liquid NGM and 40 μL of this suspension was distributed to each well of a 96-well flat-bottom culture plate. 0.5 μL chemical solution (or DMSO alone) was added to each well (1% DMSO v/v) using either a multi-channel pipette or a pinning tool (V&P Scientific). L1 worms synchronized from an embryo preparation performed the day prior were diluted to a concentration of ~2 worms/μL in M9 buffer; 10 μL worm suspension was then added to each well. Culture plates were sealed with parafilm and placed in a plastic container lined with wet paper towels to prevent evaporation. Containers were then incubated for 6 days at 20 °C with shaking at 165 rpm. Following incubation, 300 μL M9 was added to each well to decrease the turbidity of the HB101-NGM suspension. Single images of each microplate well were then taken on a Nikon Ti Eclipse inverted microscope (Nikon NIS Elements AR). Images were processed using Python scripts to isolate worm-associated pixels from background. Scores of worm development and viability were determined as the sum of worm-associated pixels in each well. Development/viability scores for each well were divided by the development /viability scores for the corresponding DMSO controls, resulting in a relative viability value for each chemical. At least three biological replicates were performed for each dose-response experiment; relative viability values were averaged across replicates. […]
anthelmintics. a. Chemical structures of four commercial benzimidazole anthelmintics (e.g., albendazole, […]
Dose response of four commercial […]
elegans strains: N2, wild type; ECA882, deletion (ben-1); ECA917, F200Y (ben-1); ECA1075, F167Y (ben-1); ECA1080, E198A (ben-1); CB3474, G104D (ben-1). The colour-coded scale denotes the phenotypic outcome of drug treatment (e.g., motility or viability) relative to DMSO controls; white/pale- […]
death and arrested development. c. […]
benzimidazole anthelmintics (blue) were conducted in C. elegans development and viability assays for wild type (N2) and ben-1 mutant (ECA882) C. elegans (see Supplementary Date File 1).
All data used for generation of dose-response curves is the mean of at least three […]
Supplementary Figure 7 (continued). Davie et al.

[4] = test system: L1 wild-type C. elegans; conditions: […]; for Relative Motility: relative to DMSO controls, single biological replicate
[5] = test system: L1 wild-type C. elegans; experiment: microbe, parasite or virus in culture; conditions: Caenorhabditis elegans, read-out: C. elegans KCN Survival Assay LC50, estimated from fitted dose-response curves; mean of at least two biological replicates
[6] = biological target: B. taurus (heart) complex I (Bos taurus, UniProt P03887+P17694+P42026); experiment: biochemical; format: biochemical; conditions: for IC50: B. taurus heart mitochondria, read-out: B. taurus Complex I IC50; for Log IC50 B. taurus complex I: log10 of IC50 in µM, B. taurus mitochondria
Sequence of B. taurus (heart) complex I (P03887 whole entry): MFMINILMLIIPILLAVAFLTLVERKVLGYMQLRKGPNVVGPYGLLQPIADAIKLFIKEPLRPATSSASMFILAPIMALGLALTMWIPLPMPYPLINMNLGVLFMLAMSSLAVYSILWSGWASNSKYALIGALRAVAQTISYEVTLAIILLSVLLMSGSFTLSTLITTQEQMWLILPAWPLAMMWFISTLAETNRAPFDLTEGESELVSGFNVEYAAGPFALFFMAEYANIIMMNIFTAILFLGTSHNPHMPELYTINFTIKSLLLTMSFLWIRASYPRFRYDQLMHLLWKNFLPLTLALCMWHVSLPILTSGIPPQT
Sequence of B. taurus (heart) complex I (P17694 34-463): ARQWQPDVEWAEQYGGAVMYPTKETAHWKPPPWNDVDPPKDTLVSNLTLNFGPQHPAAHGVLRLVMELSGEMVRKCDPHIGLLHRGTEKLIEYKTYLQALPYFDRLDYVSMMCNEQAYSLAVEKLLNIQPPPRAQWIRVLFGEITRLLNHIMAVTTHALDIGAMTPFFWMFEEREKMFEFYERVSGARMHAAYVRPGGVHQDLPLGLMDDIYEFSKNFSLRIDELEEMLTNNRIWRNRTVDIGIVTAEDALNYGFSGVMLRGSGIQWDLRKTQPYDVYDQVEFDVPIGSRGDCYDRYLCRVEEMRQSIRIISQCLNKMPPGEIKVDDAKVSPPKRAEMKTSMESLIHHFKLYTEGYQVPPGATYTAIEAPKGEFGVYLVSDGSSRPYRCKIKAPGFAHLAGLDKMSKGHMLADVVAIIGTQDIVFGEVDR
Sequence of B. taurus (heart) complex I (P42026 38-216): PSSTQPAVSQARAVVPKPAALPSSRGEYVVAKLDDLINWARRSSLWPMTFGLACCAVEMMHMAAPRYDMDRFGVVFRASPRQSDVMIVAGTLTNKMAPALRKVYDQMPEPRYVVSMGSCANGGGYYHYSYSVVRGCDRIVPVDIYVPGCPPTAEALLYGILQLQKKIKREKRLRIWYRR
Description: Six 8–10-week-old C57Bl/6 female mice (Charles River) were freshly dissected, and their livers and hearts collected into separate 1.5 mL microcentrifuge tubes. Organs were flash-frozen in liquid nitrogen and stored at −80 °C prior to use. The heart of a freshly slaughtered adult cow was obtained from a local abattoir (Peel Sausage Inc.), chopped into ~1-inch cubes and collected into 50 mL falcon tubes. Falcon tubes were flash-frozen in a container of dry ice and stored at −80 °C prior to use. Isolation of mitochondria from all mammalian tissue was carried out following the protocol described above. However, due to size, the initial homogenization of tissue was performed by 15 strokes in a dounce homogenizer (mouse heart) or with several 5 s pulses in small Nutribullet blender (cow heart). All mouse protocols for mouse care and dissection were reviewed and approved by the University of Toronto Animal Care Committee, in accordance with the Canadian Council on Animal Care.
as §1, §2
For preliminary screens of hit compounds, compounds were screened at 100 μM; data are the average of at least three biological replicates. The complex I and II activity assays were used for additional dose-response experiments. […] For dose responses of benzimidazole analogs, data represent the average of two biological replicates. For all other dose-responses, data represent the average of at least three biological replicates.

[7] = in vitro complex I dose response on C. elegans mitochondria, average of at least two biological replicates, fit in R (DRC), read-out: IC50 C. elegans complex I
[8] = wild-type (N2) mitochondria, read-out: C. elegans Complex I IC50
[9] = wild-type C. elegans mitochondria, read-out: C. elegans Complex I IC50
[10] = read-out: C. elegans (ben-1) Development & Viability Assay LC50
[11] = read-out: C. elegans ben-1 log10 LC50 (converted)
[12] = 50 μM compound, hit = relative motility below 0.25 3 hours after removal of KCN
[13] = wild-type C. elegans mitochondria, estimated from fitted dose-response curves, read-out: C. elegans Complex I IC50
[14] = 50 μM, KCN survival assay, hit = relative motility below 0.25
[15] = 50 μM, worm motility 3 hours after the removal of KCN (endpoint)
[16] = HEK293 Cell Viability Assay LC50, HEK293 cells, estimated from fitted dose-response curves, mean of at least two biological replicates
[17] = 50 μM compound, worm motility 3 hours after removal of KCN

| Compound | CC50 at 2 days [1] [µM] | IC50 [2, 7] [µM] | Log IC50 C. elegans complex I [2] [µM] | IC50 [2, 8] [µM] | IC50 [2, 9] [µM] | LC50 [3, 10] [µM] | LC50 [3, 11] [µM] | Screen "Hit" [4, 12] | LC50 [5] [µM] | IC50 [6] [µM] | Log IC50 B. taurus complex I [6] [µM] | IC50 [2, 13] [µM] | Screen "Hit" [4, 14] | Relative Motility [4, 15] | CC50 at 2 days [1, 16] [µM] | IC50 ([6]; estimated from fitted dose-response curves) [µM] | Relative Motility [4, 17] | LC50 ([3]; read-out: C. elegans ben-1 LC50) [µM] |
| --- | --- | --- | --- | --- | --- | --- | --- | --- | --- | --- | --- | --- | --- | --- | --- | --- | --- | --- |
| Cc1nc2ccccc2n1Cc1ccc(C(C)(C)C)cc1 [Compound 5521938] | 35.3 | 2.57 | 0.41 | 2.57 | 2.57 | 272 | 272 | Y (hits were identified as compounds that reduced relative motility below 0.25 (75% reduction)) | 11 | 1.18 | 0.07 | – | – | – | – | – | – | – |
| c1ccc2[nH]c(CSc3nc4ccccc4o3)nc2c1 [Compound 5668941] | – | 19.6 | 1.29 | – | – | 123 | 123 | – | 26.8 | – | – | 19.6 | Y (hits were identified as compounds that reduced relative motility below 0.25 (75% reduction)) | 0.130 | – | – | – | – |
| CCn1c(/C=C/c2ccc(F)cc2)nc2ccccc21 [Compound 7147614] | – | – | – | – | – | 77 | 77.1 | – | 14.4 | – | – | > 75 | Y (hits were identified as compounds that reduced relative motility below 0.25 (75% reduction)) | 0.130 | 41 | – | – | – |
| COc1ccccc1/C=C/c1nc2ccccc2[nH]1 [Compound 7148894] | – | – | – | – | – | 188 | 188 | – | 9.02 | – | – | > 75 | Y (hits were identified as compounds that reduced relative motility below 0.25 (75% reduction)) | 0.170 | < 12.5 | – | – | – |
| Cc1nc2ccccc2n1Cc1ccc(F)cc1 [Compound 7360886] | > 100 | 0.93 | -0.03 | 0.93 | – | 170 | 169 | Y (hits were identified as compounds that reduced relative motility below 0.25 (75% reduction)) | 27 | – | 0.66 | 0.93 | – | – | – | 4.54 | – | – |
| CCc1ccc(CNc2nc3ccccc3n2C)cc1 [STK498539] | – | 40.8 | 1.61 | – | 40.8 | 214 | 214 | Y (hits were identified as compounds that reduced relative motility below 0.25 (75% reduction)) | 30.5 | – | – | – | – | – | – | – | 0.042 | – |
| c1ccc(-c2noc(CCCCc3nc4ccccc4[nH]3)n2)cc1 [STK633241] | – | 20.6 | 1.31 | – | 20.6 | > 1000 | > 500 | Y (hits were identified as compounds that reduced relative motility below 0.25 (75% reduction)) | 19.4 | 18.5 | 1.27 | – | – | – | – | – | – | > 500 |
| C(=C\c1nc2ccccc2[nH]1)/c1ccccc1 [STK871091] | – | – | – | – | – | 148 | 148 | Y (hits were identified as compounds that reduced relative motility below 0.25 (75% reduction)) | 15 | – | – | > 75 | – | – | – | – | 0.008 | – |
| CCc1ccc(OC(C)c2nc3ccccc3[nH]2)cc1 (stereo not shown) [STK914290] | – | 71.3 | 1.85 | – | 71.3 | 227 | 228 | Y (hits were identified as compounds that reduced relative motility below 0.25 (75% reduction)) | 22.4 | – | – | – | – | – | – | – | 0.082 | – |
